Test results taken from US20250025465A1, “WT-IDH1 INHIBITION USING A COVALENT AND BRAIN-PENETRANT SMALL MOLECULAR INHIBITOR FOR FERROPTOSIS INDUCTION IN HIGH-GRADE GLIOMA” (Northwestern University, priority 2021, published 2025).
Entries after “also recorded” stand apart in the source; their conditions may differ. Read-outs that look alike come from different tables or passages of the source.

Experiments:
[1] = H&E staining of normal brain from PDX mice treated with RT+13i; format: in vivo; conditions: H&E of tumor-adjacent normal cortex, hippocampus and cerebellum
Text: (§1) (A). Treatment schedule. (B). […]. (C). Kaplan-Meyer survival benefit analysis. (D) H&E stainings of normal brain from PDX mice treated with RT+13i. *p<0.05.
(§2) . Toxicity to normal brain structures was not observed, as indicated by H&E stainings of tumor-adjacent normal cortex, hippocampus and cerebellum (FIG. 12E).

[2] = test system: HGG glioma cells; experiment: SYTOX green staining of glioma cells (plasma membrane rupture, ferroptosis); format: cell-based; conditions: for ferroptosis / plasma membrane rupture (SYTOX green positivity): compared to vehicle control, FIG. 11; for rescue of 13i treatment effect by co-treatment: co-treatment with 13i, SYTOX green, FIG. 11A-C
[3] = target: T1, recombinant wt-IDH2 (Homo sapiens, UniProt P48735); experiment: NADPH production by recombinant wt-IDH2; format: biochemical; conditions: FIG. 6
T1 sequence (P48735 40-452): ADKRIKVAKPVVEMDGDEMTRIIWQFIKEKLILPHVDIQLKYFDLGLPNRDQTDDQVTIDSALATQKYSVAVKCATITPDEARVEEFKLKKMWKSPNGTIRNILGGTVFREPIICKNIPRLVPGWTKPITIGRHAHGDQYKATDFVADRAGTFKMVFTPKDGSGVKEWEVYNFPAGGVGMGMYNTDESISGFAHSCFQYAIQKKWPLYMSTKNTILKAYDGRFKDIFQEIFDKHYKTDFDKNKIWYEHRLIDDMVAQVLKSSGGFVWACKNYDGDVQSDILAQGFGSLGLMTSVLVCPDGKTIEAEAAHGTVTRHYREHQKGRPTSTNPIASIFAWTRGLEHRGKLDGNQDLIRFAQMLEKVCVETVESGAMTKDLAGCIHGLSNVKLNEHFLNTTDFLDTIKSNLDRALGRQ
Text: FIG. 6. wt-IDH1i-13 is a selective covalent wt-IDH1 inhibitor.
(§3) The compound 13i was developed using a high-throughput screen of a proprietary library, which encompasses 750,000 compounds. During the screen, the investigators identified a hit series, centered around compound wt-IDH1i-1, which contained a large cluster of α,β-unsaturated enones^9. As indicated by the wt-IDH1: wt-IDH1i-1 crystal structure, wt-IDH1-1i bound to a fully closed wt-IDH1 enzyme and competed with NADPH for access to the wt-IDH1 active site via formation of a covalent adduct and the […] trapping of H315 located within the NAPDH binding site^9. […] Blastp searches identified wt-IDH2 as the only NADPH-dependent enzyme that contained an NADPH binding site with significant similarity to the NADPH binding pocket found in wt-IDH1. […] Of note, while H315 and D375 are conserved between wt-IDH1 and wt-IDH2, other important amino acids, including those adjacent to D375 that form a lipophilic groove (K374/L383/A378) required for 13i binding are different, and are likely to mediate compound selectivity.

[4] = see Chung et al.; cited from earlier work
[5] = target: T2, wt-IDH1 (Homo sapiens, UniProt O75874); experiment: cellular wt-IDH1 inhibition; format: cell-based; design: endogenous in cells
Text: (§4) A therapeutic strategy for the pharmacological inhibition of wt-IDH1 has been devised.
Target sequence in this assay (O75874 2-414 limits assumed): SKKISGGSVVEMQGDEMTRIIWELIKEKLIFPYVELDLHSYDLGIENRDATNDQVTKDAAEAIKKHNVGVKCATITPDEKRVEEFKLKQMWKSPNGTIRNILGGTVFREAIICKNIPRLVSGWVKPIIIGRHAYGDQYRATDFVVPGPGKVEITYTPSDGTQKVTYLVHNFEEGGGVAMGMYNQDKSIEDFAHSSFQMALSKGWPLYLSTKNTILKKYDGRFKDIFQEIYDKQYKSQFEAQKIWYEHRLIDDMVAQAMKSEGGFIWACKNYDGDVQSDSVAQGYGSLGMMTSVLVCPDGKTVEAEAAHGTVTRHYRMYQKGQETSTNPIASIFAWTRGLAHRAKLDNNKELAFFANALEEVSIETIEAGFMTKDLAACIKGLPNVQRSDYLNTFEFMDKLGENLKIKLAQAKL

[6] = test system: HGG PDX; experiment: adult HGG PDX model treated with 13i and RT; format: in vivo, mice; conditions: for enhancement of RT anti-tumor effect: i.p. administration, RT 2 Gy x 5
Text: as §1, §2

[7] = target: T2, wt-IDH1; experiment: cell-free wt-IDH1 enzyme inhibition; format: biochemical; conditions: read-out: EC50, blocks wt-IDH1
Text: as §4, §3
Target sequence in this assay (O75874 whole entry): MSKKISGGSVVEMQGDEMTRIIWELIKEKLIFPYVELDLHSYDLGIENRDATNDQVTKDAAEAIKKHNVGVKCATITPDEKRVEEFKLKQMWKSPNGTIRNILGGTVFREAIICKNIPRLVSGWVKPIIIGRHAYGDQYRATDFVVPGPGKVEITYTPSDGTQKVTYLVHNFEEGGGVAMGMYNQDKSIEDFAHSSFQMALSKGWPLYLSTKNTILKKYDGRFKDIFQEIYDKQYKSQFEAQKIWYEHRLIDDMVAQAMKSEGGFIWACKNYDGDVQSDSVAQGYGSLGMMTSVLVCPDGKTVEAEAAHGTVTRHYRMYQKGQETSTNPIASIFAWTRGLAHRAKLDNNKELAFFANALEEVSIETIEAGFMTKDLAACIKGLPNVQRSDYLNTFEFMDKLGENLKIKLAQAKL

[8] = in vivo effects of mt-IDH1 inhibitors in HGG
Text: (§5) As these mt-IDH1-specific inhibitors recognize an allosteric site within the enzyme dimerization domain, many of these compounds show ‘off-target’ effect against wt-IDH1, as elucidated in cell-free enzyme repression assays.

[9] = test system: patient-derived HGG cells; experiment: growth and cell death in patient-derived HGG cells; format: cell-based
Text: as §5

[10] = test system: U87MG cells; experiment: clonogenic growth assay, RT enhancement upon wt-IDH1 knockdown; format: cell-based; conditions: incubation with antioxidant precursor, FIG. 5A
Procedure: FIG. 5. wt-IDH1 inactivation enhances RT anti-tumor effect (A). RT enhancement ratio, as assessed via clonogenic growth assay in U87MG cells, upon genetic wt-IDH1inactivation, in the presence or absence of the ROS scavenger N-acetyl […] (NAC). (B). wt-IDH1 in doxy-treated xenogafts. (C). Tumor volume in mice subcutaneously implanted with U87MG cells carrying a doxy-inducible shIDH1 were treated with doxy and irradiated with a total of 14 Gy administered in 7 fractions of 2 Gy, and tumor volumes were measured. *p<0.05. (D.) Kaplan-Meyer estimates for tumor tripling, *p<0.005 vs. control; **p<0.001 vs. control, RT and doxy. […] Knockdown of wt-IDH1 decreased HGG cell line NADPH concentrations by 50-60%, and similarly depleted numerous NADPH-dependent metabolites, including the antioxidant glutathione (GSH). […] To determine whether combining RT and wt-IDH1 knockdown had beneficial anti-HGG effects in vivo, we established flank xenografts carrying a doxycycline (doxy)-inducible shRNA directed against wt-IDH1. A flank model was used due to the variable CNS penetrance of doxy. Immunoblotting confirmed that administration of doxy had the intended effects on wt-IDH1 expression in both inducible shIDH1 and shCo xenografts (FIG. 5B).

[11] = target: T2, wt-IDH1; conditions: covalent engagement with the NADPH pocket; from the screen of Jakob et al.; read-out: cell-free EC50; cited from earlier work
Target sequence in this assay (O75874 whole entry): as above

C[C@@H]1C(=O)C(C#N)=C[C@]2(c3ccccc3)c3nc(Nc4ccccc4)ncc3CC[C@@H]12 [13i, (6aS,7S,10aR)-2-anilino-7-methyl-8-oxo-10a-phenyl-5,6,6a,7-tetrahydrobenzo[h] quinazoline-9-carbonitrile]
toxicity to normal brain structures [1]: not observed | ferroptosis / plasma membrane rupture (SYTOX green positivity) [2]: induced plasma membrane rupture; also recorded: promotes ferroptosis | ferroptosis / plasma membrane rupture (SYTOX green positivity) ([2]; listed as wt-DIH1i-13): promotes ferroptosis | fold higher EC50 against recombinant wt-IDH2 compared to wt-IDH1 [3]: 100 fold | brain penetrance [4]: brain-penetrant | IC50 [5]: 800 to 1700 nM | tumor volume / progression (bioluminescence) ([6]; i.p. 10 mg/kg M-F, in combination with RT 2 Gy x 5, 10 mg/kg): highly reduced tumor volume; also recorded: reduces the progression | survival ([6]; i.p. 10 mg/kg M-F, in combination with RT 2 Gy x 5, versus vehicle, 10 mg/kg): increased survival; also recorded: extends the survival | enhancement of RT anti-tumor effect [6]: enhancement of RT anti-tumor effect | enhancement of RT anti-tumor effect ([6]; listed as wt-DIH1i-13): enhances RT anti-tumor effect in vivo | EC50 [7]: 14 nM

COc1c(C)cc(NC(=O)c2nn(Cc3ccc(F)cc3)c3c2CN(C(=O)c2ccc[nH]2)C[C@]3(C)C(N)=O)cc1C [GSK864]
in vivo effects [8]: moderate | drug concentrations sufficient to impact growth and cell death [9]: in the high micromolar range

CC(=O)N[C@@H](CS)C(=O)O [NAC, N-acetyl cysteine, reference compound]
reversal of radiosensitization conferred by wt-IDH1 knockdown [10]: nearly completely reversed | rescue of 13i treatment effect by co-treatment [2]: rescued 13i treatment effect

CCOC(=O)c1ccc(NC2CCCCC2)c(N)c1 [ferrostatin, reference compound]
rescue of 13i treatment effect by co-treatment [2]: rescued 13i treatment effect

C[C@@H]1C(=O)C(C#N)=C[C@]2(C)c3nc(Nc4ccccc4)ncc3CC[C@@H]12 [wt-IDH1i-1, (6aS,7S,10aR)-2-anilino-7,10a-dimethyl-8-oxo-5,6,6a,7-tetrahydrobenzo[h] quinazoline-9-carbonitrile]
EC50 [11]: 49 nM
